Assay results taken from patent publication EP0563386A1, “ANTICANCER COMPOSITION AND COMPOUND” (NIPPON SHINYAKU COMPANY, LIMITED, priority 1990, dated 1992).
Where a name gives a salt, the structure may show the parent alone.

How the values were obtained:
Meth A fibrosarcoma = Meth A fibrosarcoma tumor volume in mice (Test Example 2); format: in vivo, BALB/c mice
Description: • (1) The homologus tumor Meth A fibrosarcoma subcultured (ascites type) in BALB/c mice, 5 x 10^5 cells, was transplanted subcutaneously at the flank of 6-week-old male BALB/c mice. Mice having a tumor volume of 70-100 mm³ were selected and divided into groups of 9. Oral single daily administration of the test compound was started and the body weight and tumor volume were serially determined. The volume was determined using the same calculation formula as shown in Test Example 1. The compound of the invention irsogladine maleate, 10 mg/kg, suspended in 0.5% methylcellulose maleate and 5-fluorouracil, 15 mg/kg, dissolved in 0.5% methylcellulose solution were respectively administered orally. The control group received 0.5% methylcellulose solution orally. […] The effect of the com pound of this invention as an anticancer agent is, thus, clear. • (2) As in the above test, mice having a tumor volume of 160-180 mm³ were selected and subjected to the same test as above. The compound of this invention irsogladine maleate, 10 mg/kg, 5-flurorouracil, 30 mg/kg, or as a combination therapy, irsogladine maleate, 10 mg/kg, plus 5-fluorouracil, 30 mg/kg, were administered orally. The control group received the same control material as in the above test orally. […] The anticancer adjuvant activity of the compound of this invention to 5-FU is clear.
The open circle stands for control, the open triangle for 5-FU and the closed circle for the compound of the invention. The tumor volume (mm³) is plotted on the vertical axis and the number of days after drug administration on the horizontal axis.
The open circle stands for control, the open triangle for F-5U, the closed circle for the compound of the invention, the open square for the combination therapy. The tumor volume (mm³) is plotted on the vertical axis and the number of days after drug administration on the horizontal axis.

cancer patients [1] = test: Clinical use with radiotherapy and chemotherapy, 39 case reports (Test Example 8); format: in vivo
Description: Predetermined radiotherapy [each proven focus was irradiated with cobalt 60 gamma rays, […], in simply divided doses at intervals of several days and oily bleomycin was administered intramuscularly in a dose range of 0.5-3 mg/day (a total of not more than 50 mg) 30 minutes before and 30 minutes after each irradiation] was given to the following cancer patients and concomitantly the following prescription was given orally.
Following Test Example 7, the clinical effect was investigated. Radiotherapy, chemotherapy and administration of irsogladine maleate were performed in the same manner as in Test Example 7.

cancer patients [2] = test: Clinical use with radiotherapy and chemotherapy, 45 cancer cases (Test Example 7); format: in vivo
Description: Predetermined radiotherapy [each proven focus was irradiated with cobalt 60 gamma rays, about 28 Gy, in simply divided doses at intervals of several days and oily bleomycin was administered intramuscularly in a dose range of 0.5-3 mg/day (a total of not more than 50 mg) 30 minutes before and 30 minutes after each irradiation] was given to the following cancer patients and concomitantly the following prescription was given orally.

[3] = test system: WiDr (human colon cancer); test: Tumor growth inhibition, WiDr implant in nude mice (Test Example 1); format: in vivo, BALB/c nude mice; conditions: implant volume on day 18 after transplantation divided by volume at transplantation; irsogladine maleate 10 mg/kg orally once daily from day 14; cyclophosphamide 150 mg/kg intraperitoneally once on day 14; groups of 10
Description: WiDr (human colon cancer) cells subcultured in BALB/c nude mice were dissected to prepare cubes, about 2 mm³ each. These cubes were transplanted subaxillarily into separate BALB/c nude mice using a transplantation needle. The animals were divided into groups of 10 individuals on day 10 after transplantation and the body weight and the diameter of the implant were serially determined. As the compound of this invention, irsogladine maleate, 10 mg/kg, was suspended in 0.5% methylcellulose solution and administered orally once daily beginning day 14 after transplantation. Cyclophosphamide, 150 mg/kg, was dissolved in PBS and administered intraperitoneally once on day 14 after transplantation. The control group received 0.5% methylcellulose solution orally once daily beginning day 14 after transplantation.
The volume of the implant on day 18 after transplantation was divided by the volume at trans plantation. […]
The effect of the compound of this invention as an anticancer agent is clear.

Compound: Nc1nc(N)nc(-c2cc(Cl)ccc2Cl)n1 [irsogladine maleate]
- tumor volume (effect versus 5-FU) (Meth A fibrosarcoma; Test (1): start tumor volume 70-100 mm³, irsogladine maleate 10 mg/kg orally once daily, comparator 5-fluorouracil 15 mg/kg orally, Fig. 1): effect comparable to that of 5-FU, 15 mg/kg
- tumor-inhibitory effect, single drug (Meth A fibrosarcoma; Test (2): start tumor volume 160-180 mm³, irsogladine maleate 10 mg/kg or 5-fluorouracil 30 mg/kg orally, Fig. 2): tumor-inhibitory effect
- tumor-inhibitory effect, combination therapy (Meth A fibrosarcoma; Test (2): start tumor volume 160-180 mm³, irsogladine maleate 10 mg/kg plus 5-fluorouracil 30 mg/kg orally, Fig. 2): more remarkable
- clinical outcome (cancer patients [1]; (1) case (1): person, SCC of the pharynx metastasized to the right neck, about 15 days, with irradiation and chemotherapy): complete resoltuion of the tumor
- clinical outcome (cancer patients [1]; (1) case (2): person, SCC of the pharynx metastasized to the left neck, with radiotherapy and chemotherapy): complete resolution of the tumor
- clinical outcome (cancer patients [1]; (1) case (3): person, pharyngeal cancer with lymph node and lung metastasis, with radiotherapy and chemotherapy): complete resolution of the tumor
- clinical outcome (cancer patients [1]; (1) case (4): person, SCC of the anterior association of the vocal cord, pharyngeal cancer, with radiotherapy and chemotherapy): complete resolution of the tumor
- clinical outcome (cancer patients [1]; (1) case (5): person, SCC of the pharynx, metastasis to the mediastinum, with radiotherapy and chemotherapy): complete resolution of the tumor
- clinical outcome (cancer patients [1]; (1) case (6): person, tumor in the anterior association of the vocal cord, with radiotherapy and chemotherapy): partial resolution of the tumor
- clinical outcome (cancer patients [1]; (1) case (7): person, SCC of the pharynx, with radiotherapy and chemotherapy): complete resolution of the tumor
- clinical outcome (cancer patients [1]; (2) case (1): person, TCC of the ureter, after resection, with radiotherapy and chemotherapy): complete resolution of the tumor
- clinical outcome (cancer patients [1]; (2) case (2): person, TCC of the ureter, relapsed, with radiotherapy and chemotherapy): partial resolution of the tumor
- clinical outcome (cancer patients [1]; (3) case (1): person, SCC of the tongue, metastasis to the left neck, with radiotherapy and chemotherapy): complete resolution of the tumor
- clinical outcome (cancer patients [1]; (3) case (2): person, SCC of the tongue with metastasis to the left neck, with radiotherapy and chemotherapy): complete resolution of the tumor
- clinical outcome (cancer patients [1]; (4) case (1): person, recurrent breast cancer with bone metastasis, with radiotherapy and chemotherapy): died of injury of cervical vertebra and paraplegia
- clinical outcome (cancer patients [1]; (4) case (2): person, recurrent breast cancer, invasive duct carcinoma, with radiotherapy and chemotherapy): complete resolution of the tumor
- clinical outcome (cancer patients [1]; (5) case (1): person, breast cancer (first on-set), 3 months, with radiotherapy, chemotherapy and resection): complete resolution of the tumor
- clinical outcome (cancer patients [1]; (6) case (1): person, SCC of the epipharynx, metastases to lung and lumbar vertebra, with radiotherapy and chemotherapy): partial resolution of the tumor
- clinical outcome (cancer patients [1]; (6) case (2): person, SCC of epipharynx with metastasis to the right neck, with radiotherapy and chemotherapy): complete resolution of the tumor
- clinical outcome (cancer patients [1]; (6) case (3): person, pulmonary metastasis from epipharynx SCC, with radiotherapy and chemotherapy, patient later died after mixed infection): tumor disappeared
- clinical outcome (cancer patients [1]; (6) case (4): person, maxillary/epipharyngeal cancer group, with irradiation and chemotherapy): partially resolved
- clinical outcome (cancer patients [1]; (7) case (1): person, tumor of the right anterior ear, SCC of parotid gland, with radiation therapy and chemotherapeutic agents): tumor disappeared
- clinical outcome (cancer patients [1]; (7) case (2): person, SCC of the right external auditory canal, with radiotherapy, chemotherapy and resection): complete resolution
- clinical outcome (cancer patients [1]; (7) case (3): person, SCC relapsed in the left anterior ear, with radiotherapy, chemotherapy and resection): completely disappeared
- clinical outcome (cancer patients [1]; (8) case (1): person, metastatic lung cancer, primary rectal cancer, dotted shadow of right lower lung field, with radiotherapy and chemotherapy): reduced to 1/4
- clinical outcome (cancer patients [1]; (8) case (2): person, metastatic lung cancer, primary hypopharynx cancer, with radiotherapy and chemotherapy): disappeared completely
- clinical outcome (cancer patients [1]; (8) case (3): person, metastatic lung cancer, primary esophageal cancer (upper), with radiotherapy and chemotherapy): disappeared completely
- clinical outcome (cancer patients [1]; (8) case (4): person, primary pharyngeal cancer, metastases to hili of the lung, with radiotherapy and chemotherapy): the enlargement of the pharynx and of the hili of the lung disappeared
- clinical outcome (cancer patients [1]; (8) case (5): person, primary pancreatic carcinoma, pulmonary metastasis, with radiotherapy and chemotherapy): disappeared completely
- clinical outcome (cancer patients [1]; (8) case (6): person, primary colon cancer, pulmonary metastasis, with radiotherapy and chemotherapy): Partial resolution
- clinical outcome (cancer patients [1]; (9) case (1): person, recurrent ovarian cancer, with chemotherapeutic agents): remained unchanged
- clinical outcome (cancer patients [1]; (9) case (2): person, ovarian cancer, metastases to Virchow's nodes, abdominal tumor, with radiotherapy and chemotherapy): disappeared completely
- clinical outcome (cancer patients [1]; (9) case (3): person, uterine cancer, SCC, with radiation therapy (40 Gy) and chemotherapy): partial resolution of the tumor
- clinical outcome (cancer patients [1]; (9) case (4): person, stomach cancer with ascites, after resection, with irradiation and chemotherapy): died of DIC
- clinical outcome (cancer patients [1]; (10) case (1): person, colorectal cancer, tubular ADC, with radiotherapy and chemotherapy): died of mixed infection
- clinical outcome (cancer patients [1]; (10) case (2): person, colorectal cancer with pulmonary and nodal metastasis, ascites, with radiotherapy and chemotherapy): ascites were reduced and the patient became ambulant
- clinical outcome (cancer patients [1]; (10) case (3): person, tumor of the right hypogastrium, CK and ADC, with radiotherapy and chemotherapy): ascites were removed
- clinical outcome (cancer patients [1]; (11) case (1): person, liposarcoma of the left chest wall with metastasis to the right mediastinum, with radiotherapy and chemotherapy): Partial resolution
- clinical outcome (cancer patients [1]; (11) case (2): person, pelvic chondrosarcoma, treatment from November 1990 with radiotherapy and chemotherapy): living as of February 1991
- clinical outcome (cancer patients [1]; (11) case (3): person, chondrosarcoma of the right leg, pulmonary metastasis, with radiotherapy and chemotherapy): Pain was relieved
- clinical outcome (cancer patients [1]; (11) case (4): person, malignant lymphoma, tumor 4 x 4 cm at start, with radiotherapy and chemotherapy): Complete resolution
- clinical outcome (cancer patients [1]; (11) case (5): person, malignant multiple schwannoma vertebrae, with radiotherapy and chemotherapy): paralysis of limbs was found
- patients who died (cancer patients [1]; of the 39 patients of Test Example 8): four
- complete or partial resolution, overall (cancer patients [1]; summary of the 39 patients of Test Example 8): no patients in whom complete or partial resolution was not obtained
- disappearance of tumor by palpation or diagnostic imaging (cancer patients [2]; 11 cases of breast cancer, 4 weeks after initiation, 2 mg/day x 2 orally with radiotherapy and chemotherapy): disappearance of tumor was confirmed
- disappearance of tumor by palpation or diagnostic imaging (cancer patients [2]; 13 cases of pharyngeal cancer and cancer of upper esophagus, 4 weeks after initiation, 2 mg/day x 2 orally with radiotherapy and chemotherapy): disappearance of tumor was confirmed
- cases with disappearance of tumor confirmed by palpation or diagnostic imaging (cancer patients [2]; all 45 cases of Test Example 7): 45 cases
- disappearance of tumor by palpation or diagnostic imaging (cancer patients [2]; five cases of rectal cancer, 4 weeks after initiation, 2 mg/day x 2 orally with radiotherapy and chemotherapy): disappearance of tumor was confirmed
- disappearance of tumor by palpation or diagnostic imaging (cancer patients [2]; nine cases of maxillary cancer and epipharyngeal cancer, 4 weeks after initiation, 2 mg/day x 2 orally with radiotherapy, bleomycin, carmofur, doxifluridine, tegafur): disappearance of tumor was confirmed
- cases with disappearance of tumor histologically verified by biopsy (cancer patients [2]; of the 45 cases of Test Example 7): 14 cases
- disappearance of tumor by diagnostic imaging (cancer patients [2]; one case of stomach cancer, 4 weeks after initiation, 2 mg/day x 2 orally with radiotherapy and chemotherapy): disappearance of tumor was confirmed
- disappearance of tumor by palpation or diagnostic imaging (cancer patients [2]; six cases of bladder cancer, renal cancer, ovarian cancer, etc., 4 weeks after initiation, 2 mg/day x 2 orally with radiotherapy and chemotherapy): disappearance of tumor was confirmed
- Tumor volume ratio [3]: 1.52 ± 0.08
